Usually IC50 stands for the concentration that inhibits the measured activity by half.

This experiment addresses T1, human recombinant GPR65 (Homo sapiens, UniProt Q8IYL9).
T1 construct: host or cells: 1321N1 human astrocytoma cells (1321N1-hrGPR65)
Nature of the experiment: Human GPR65 cAMP HTRF antagonist assay. The experiment is classed as cell-based. The note with it: 1321N1-hrGPR65 cells, assay pH 7.2, cAMP HTRF; read-out: hGPR65 IC50. From the text:
The “Human GPR65 cyclic adenosine monophosphate (cAMP) Homogeneous Time Resolved Fluorescence (HTRF) antagonist assay”, or simply “cAMP assay”, as described in the accompanying examples, can be used to measure the potency of GPR65 modulators, which is expressed as the concentration of compound required to reduce the increase in cAMP concentration upon GPR65 activation by 50% (i.e. an IC50).
Human GPR65 Cyclic Adenosine Monophosphate (cAMP) Homogeneous Time Resolved Fluorescence (HTRF) Antagonist Assay Procedure
IC50data was obtained by the following procedure:
1321N1 human astrocytoma cells stably expressing human recombinant GPR65 (1321N1-hrGPR65 cells, EuroscreenFast) were cultured according to the vendor's instructions.
Compounds were tested for their ability to antagonise GPR65, through measuring the concentration of cytoplasmic cAMP following treatment of the cells at a pH of 7.2 to activate GPR65 signalling and addition of the compound to be tested. The extent to which the expected rise in cAMP concentration upon GPR65 activation was suppressed by the added compound is indicative of its potency. The assay was carried out according to EuroscreenFast assay Methodology as follows.
On the day of the assay, test compounds were added to 384-well, low volume, white microtiter plates by acoustic dispensing. KRH buffer (5 mM KCl, 1.25 mM MgSO4, 124 mM NaCl, 25 mM HEPES, 13.3 mM Glucose, 1.25 mM KH2PO4 and 1.45 mM CaCl2) was adjusted to pH 6.5, pH 7.6 and pH 8.4 by adding NaOH. 1321N1-hGPR65 cells were rapidly thawed and diluted in KRH, pH 7.6 prior to centrifugation at 300×g for 5 min and resuspension in assay buffer (KRH, pH 7.6, supplemented with 1 mM 3-isobutyl-1-methylxanthine (IBMX) and 200 μM ethylenediaminetetraacetic acid (EDTA)). Cells were added to assay plates at a density of 2,000 cells per well in a volume of […]. Assay plates were briefly centrifuged at 100×g and then incubated at room temperature for 30 min. Cells were stimulated by the addition of 5 μL KRH, pH 6.5, to achieve an assay pH of 7.2, while control wells received […] KRH, pH 8.4 to achieve an assay pH of 7.9. Assay plates were briefly centrifuged at 100×g and then incubated at room temperature for 30 min.
Accumulation of cAMP was detected by cAMP HTRF kit (Cisbio). d2-labeled cAMP and cryptate-labeled anti-cAMP antibody in Lysis and Detection Buffer (Cisbio) were added to assay plates, and the plates were incubated at room temperature for 1 h. HTRF measurements were performed using a Pherastar FSX instrument. Acceptor and donor emission signals were measured at 665 nm and 620 nm, respectively, and HTRF ratios were calculated as signal665 nm/signal620 nm×104. Data were normalised to high and low control values and fitted with 4-parameter logistic regression to determine hGPR65 IC50 values for the test compounds, which are shown in Table 1.
(In general: In TR-FRET formats the signal depends on donor and acceptor labels being close together.)

T1 sequence (Q8IYL9 whole entry): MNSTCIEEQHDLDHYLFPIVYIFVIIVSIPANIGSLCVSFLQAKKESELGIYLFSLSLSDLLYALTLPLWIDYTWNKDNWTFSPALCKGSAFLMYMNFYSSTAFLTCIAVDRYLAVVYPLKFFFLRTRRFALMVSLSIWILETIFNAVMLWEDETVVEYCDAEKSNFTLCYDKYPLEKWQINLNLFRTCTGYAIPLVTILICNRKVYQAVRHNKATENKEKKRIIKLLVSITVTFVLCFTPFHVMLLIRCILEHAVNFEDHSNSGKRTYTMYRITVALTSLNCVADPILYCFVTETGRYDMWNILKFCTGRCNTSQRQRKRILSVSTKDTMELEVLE

Take `O=C(Nc1cc(Cl)c(-c2ccc(O[C@H]3CCN(CC(F)(F)F)C3)nc2)cc1F)N1[C@H]2CC[C@@H]1c1c[nH]c(=O)cc1C2` (single isomer, unassigned) [Compound 78]: the IC50 is less than 500 nM. For `CN(CC(F)(F)F)c1ccnc(-c2cc(F)c(NC(=O)N3[C@H]4CC[C@@H]3c3c[nH]c(=O)cc3C4)cc2Cl)c1` [Compound 39, (6S,9R)-N-(5-chloro-2-fluoro-4-(4-(methyl(2,2,2-trifluoroethyl)amino)pyridin-2-yl)phenyl)-3-oxo-3,5,6,7,8,9-hexahydro-2H-6,9-epiminocyclohepta[c]pyridine-10-carboxamide], the IC50 is less than 500 nM.

On to `O=C(Nc1cc(Cl)c(COc2cccc(OC3CCCC3)n2)cc1F)N1[C@H]2CC[C@@H]1c1n[nH]c(=O)cc1C2` [Compound 59, (6S,9R)-N-(5-chloro-4-(((6-(cyclopentyloxy)pyridin-2-yl)oxy)methyl)-2-fluorophenyl)-3-oxo-3,5,6,7,8,9-hexahydro-2H-6,9-epiminocyclohepta[c]pyridazine-10-carboxamide], for which the IC50 is less than 500 nM. Regarding `O=C(Nc1cc(Cl)c(C(F)(F)F)cn1)N1C2CCC1C(F)(F)c1c2ccnc1F` (racemic) [Compound 34, (±)-N-(4-chloro-5-(trifluoromethyl)pyridin-2-yl)-1,9,9-trifluoro-6,7,8,9-tetrahydro-5H-5,8-epiminocyclohepta[c]pyridine-10-carboxamide], the IC50 is less than 500 nM. In the case of `O=C(Nc1cc(Cl)c(-c2ccc(OCC34CNC(C3)C4)nc2)cc1F)N1[C@H]2CC[C@@H]1c1c[nH]c(=O)cc1C2` [Compound 60, (6S,9R)-N-(4-(6-((2-azabicyclo[2.1.1]hexan-4-yl)methoxy)pyridin-3-yl)-5-chloro-2-fluorophenyl)-3-oxo-3,5,6,7,8,9-hexahydro-2H-6,9-epiminocyclohepta[c]pyridine-10-carboxamide], the IC50 was 500 to 5000 nM. As to `O=C(Nc1cc(Cl)c(-c2ccc(O[C@@H]3CCN(CC(F)(F)F)C3)nc2)cc1F)N1[C@H]2CC[C@@H]1c1c[nH]c(=O)cc1C2` (single isomer, unassigned) [Compound 77], the IC50 was less than 500 nM. For the molecule `O=C(Nc1cc(Cl)c(-c2ccc(OCC3CCOC3)nc2)cc1F)N1[C@H]2CC[C@@H]1c1n[nH]c(=O)cc1C2` (stereo partly drawn) [Compound 41, (6S,9R)-N-(5-chloro-2-fluoro-4-(6-((tetrahydrofuran-3-yl)methoxy)pyridin-3-yl)phenyl)-3-oxo-3,5,6,7,8,9-hexahydro-2H-6,9-epiminocyclohepta[c]pyridazine-10-carboxamide], the IC50 was less than 500 nM. Consider `CC(C)(C)OC(=O)N1CC(COc2ccc(-c3cc(F)c(NC(=O)N4[C@H]5CC[C@@H]4c4c[nH]c(=O)cc4C5)cc3Cl)cn2)C1` [Compound 29, tert-Butyl 3-(((5-(2-chloro-5-fluoro-4-((6S,9R)-3-oxo-3,5,6,7,8,9-hexahydro-2H-6,9-epiminocyclohepta[c]pyridine-10-carboxamido)phenyl)pyridin-2-yl)oxy)methyl)azetidine-1-carboxylate], for which the IC50 is less than 500 nM. Take `Cc1cc(NC(=O)N2[C@H]3CC[C@@H]2c2c[nH]c(=O)cc2C3)c(F)cc1-c1ccc2nsnc2c1` [Compound 17, (6S,9R)-N-(4-(benzo[c][1,2,5]thiadiazol-5-yl)-2-fluoro-5-methylphenyl)-3-oxo-3,5,6,7,8,9-hexahydro-2H-6,9-epiminocyclohepta[c]pyridine-10-carboxamide]: the IC50 was less than 500 nM. On to `O=C(Nc1cc(Cl)c(COc2ccccc2)cc1F)N1[C@H]2CC[C@@H]1c1c[nH]c(=O)cc1C2` [Compound 53, (6S,9R)-N-(5-chloro-2-fluoro-4-(phenoxymethyl)phenyl)-3-oxo-3,5,6,7,8,9-hexahydro-2H-6,9-epiminocyclohepta[c]pyridine-10-carboxamide], for which the IC50 was less than 500 nM. As for `O=C(Nc1cc(Cl)c(Cl)cn1)N1C2CCC1C(F)(F)c1c2ccnc1F` (racemic) [Compound 36, (±)-N-(4,5-dichloropyridin-2-yl)-1,9,9-trifluoro-6,7,8,9-tetrahydro-5H-5,8-epiminocyclohepta[c]pyridine-10-carboxamide], the IC50 is less than 500 nM. With `Cc1cc(-c2cc(F)c(NC(=O)N3[C@H]4CC[C@@H]3c3c[nH]c(=O)cc3C4)cc2Cl)cc2nsnc12` [Compound 24, (6S,9R)-N-(5-chloro-2-fluoro-4-(7-methylbenzo[c][1,2,5]thiadiazol-5-yl)phenyl)-3-oxo-3,5,6,7,8,9-hexahydro-2H-6,9-epiminocyclohepta[c]pyridine-10-carboxamide], the IC50 is less than 500 nM. Take `O=C(Nc1cc(Cl)c(-c2ccc3nonc3c2)cn1)N1[C@@H]2CC[C@H]1C(F)(F)c1c2ccnc1F` [Compound 74, (5R,8S)-N-(5-(Benzo[c][1,2,5]oxadiazol-5-yl)-4-chloropyridin-2-yl)-1,9,9-trifluoro-6,7,8,9-tetrahydro-5H-5,8-epiminocyclohepta[c]pyridine-10-carboxamide]: the IC50 was less than 500 nM.

As to `O=C(Nc1cc(Cl)c(-c2ccc(CC(F)(F)F)nc2)cc1F)N1[C@H]2CC[C@@H]1c1c[nH]c(=O)cc1C2` [Compound 40, (6S,9R)-N-(5-chloro-2-fluoro-4-(6-(2,2,2-trifluoroethyl)pyridin-3-yl)phenyl)-3-oxo-3,5,6,7,8,9-hexahydro-2H-6,9-epiminocyclohepta[c]pyridine-10-carboxamide], the IC50 was less than 500 nM. For `CN(CC(F)(F)F)c1ccc(-c2cc(F)c(NC(=O)N3[C@H]4CC[C@@H]3c3n[nH]c(=O)cc3C4)cc2Cl)cn1` [Compound 3, (6S,9R)-N-(5-chloro-2-fluoro-4-(6-(methyl(2,2,2-trifluoroethyl)amino)pyridin-3-yl)phenyl)-3-oxo-3,5,6,7,8,9-hexahydro-2H-6,9-epiminocyclohepta[c]pyridazine-10-carboxamide], the IC50 is less than 500 nM. For the molecule `O=C(NC12CC(c3ccc(OCC(F)(F)F)nc3)(C1)C2)N1[C@H]2CC[C@@H]1c1n[nH]c(=O)cc1C2` [Compound 7, (6S,9R)-3-Oxo-N-(3-(6-(2,2,2-trifluoroethoxy)pyridin-3-yl)bicyclo[1.1.1]pentan-1-yl)-3,5,6,7,8,9-hexahydro-2H-6,9-epiminocyclohepta[c]pyridazine-10-carboxamide], the IC50 lay in the range of 500 to 5000 nM. With `Cn1cc(-c2cc(F)c(NC(=O)N3[C@H]4CC[C@@H]3c3c[nH]c(=O)cc3C4)cc2Cl)ccc1=O` [Compound 30, (6S,9R)-N-(5-chloro-2-fluoro-4-(1-methyl-6-oxo-1,6-dihydropyridin-3-yl)phenyl)-3-oxo-3,5,6,7,8,9-hexahydro-2H-6,9-epiminocyclohepta[c]pyridine-10-carboxamide], the IC50 is 500 to 5000 nM. Next, `Cn1ccc2cc(-c3cc(F)c(NC(=O)N4[C@H]5CC[C@@H]4c4c[nH]c(=O)cc4C5)cc3Cl)ccc21` [Compound 26, (6S,9R)-N-(5-chloro-2-fluoro-4-(1-methyl-1H-indol-5-yl)phenyl)-3-oxo-3,5,6,7,8,9-hexahydro-2H-6,9-epiminocyclohepta[c]pyridine-10-carboxamide]: less than 500 nM; `COCCOCCO[C@H]1C[C@H](Oc2ccc(-c3cc(F)c(NC(=O)N4[C@H]5CC[C@@H]4c4c[nH]c(=O)cc4C5)cc3Cl)cn2)C1` [Compound 22, (6S,9R)-N-(5-chloro-2-fluoro-4-(6-((1r,3R)-3-(2-(2-methoxyethoxy)ethoxy)cyclobutoxy)pyridin-3-yl)phenyl)-3-oxo-3,5,6,7,8,9-hexahydro-2H-6,9-epiminocyclohepta[c]pyridine-10-carboxamide]: less than 500 nM; `COCCO[C@H]1C[C@@H](Oc2ccc(-c3cc(F)c(NC(=O)N4[C@H]5CC[C@@H]4c4c[nH]c(=O)cc4C5)cc3Cl)cn2)C1` [Compound 23, (6S,9R)-N-(5-chloro-2-fluoro-4-(6-((1s,3S)-3-(2-methoxyethoxy)cyclobutoxy)pyridin-3-yl)phenyl)-3-oxo-3,5,6,7,8,9-hexahydro-2H-6,9-epiminocyclohepta[c]pyridine-10-carboxamide]: less than 500 nM.
